Laboratory results as given in ChEMBL document CHEMBL3727361, “Nitrogen bicyclic compounds as inhibitors for Scyl1 and Grk5” (2014).

Test system: Beta-TC6
Test: Increase in insulin release in mouse BetaTC6 cells assessed as relative insulin release activity at 10 uM incubated for 2 to 4 hrs by FRET based HTRF assay relative to sunitinib
Assay type: functional
Details: not given

Structure (SMILES) | Activity
COc1cc(-c2ccc3ncc(-c4cccc(C(=O)NCCN(C)C)c4)n3n2)ccc1O | 10%
NC(=O)c1ccc(-c2cnc3ccc(Cc4ccccc4)nn23)cc1 | 20%
Cn1cc(-c2ccc3ncc(-c4cccs4)n3n2)cn1 | 20%
NC(=O)c1ccc(-c2cnc3ccc(Cc4ccc(F)cc4)nn23)cc1 | 20%
Clc1ccc(-c2cnc3cnc(-c4ccncc4)cn23)cc1 | 20%
COc1cc(-c2nnc3ccc(-c4ccc(N5CCN(C)CC5)cc4)cn23)ccc1O | 20%
Fc1cccc(-c2cnc3cnc(-c4ccc(Cl)cc4)cn23)c1 | 20%
CC(=O)c1ccc(-c2cnc3cccnn23)cc1 | 10%
CCCNc1ccc2ncc(-c3ccc(C(=O)O)cc3)n2n1 | 10%
Fc1cccc(-c2cn3c(-c4ccc5c(c4)OCO5)cnc3cn2)c1 | 50%
COc1ccc(-c2cn3c(-c4cccc(O)c4)cnc3cn2)cn1 | 20%
CCOc1cccc(-c2cn3c(-c4ccc(CCC(=O)O)cc4)cnc3cn2)c1 | >=100%
Oc1ccc(-c2cnc3cnc(-c4ccc(Cl)cc4)cn23)cc1 | 20%
COc1ccc(-c2cnc3ccc(NCC4CC4)nn23)cn1 | 10%
COc1cc(-c2cn3c(-c4ccc5ncccc5c4)cnc3cn2)ccc1O | 20%
Clc1cccc(-c2nnc3ccc(-c4ccoc4)cn23)c1 | 50%
CC(=O)c1cccc(-c2cnc3cnc(-c4cccc(F)c4)cn23)c1 | 20%
FC(F)(F)c1cccc(-c2cnc3ccc(-c4ccncc4)nn23)c1 | 20%
Fc1cccc(-c2ccc3ncc(-c4ccc5c(c4)OCO5)n3n2)c1 | 20%
CN(C)CCCOc1ccc(-c2nnc3ccc(-c4ccc(Cl)cc4)cn23)cc1 | 20%

Structure (SMILES) | Activity
COc1cncc(-c2cnc3ccc(Cc4ccc(F)cc4)nn23)c1 | 20%
O=C(NCCO)c1ccc(-c2cn3c(-c4ccsc4)cnc3cn2)cc1 | 10%
Clc1cccc(-c2nnc3ccc(-c4cncnc4)cn23)c1 | 20%
Cc1ccccc1-c1cn2c(-c3ccc4c(c3)OCO4)cnc2cn1 | 20%
COc1cc(-c2ccc3nnc(-c4ccoc4)n3c2)cc(OC)c1OC | 50%
CC(C)[C@@H](CO)Nc1ccc2ncc(-c3ccc(N)cc3)n2n1 | 50%
Cc1ccccc1-c1nnc2ccc(-c3ccc(C(N)=O)cc3)cn12 | 20%
O=C(Nc1cnc2cnc(-c3ccsc3)cn12)c1cccs1 | 20%
FC(F)(F)Oc1cccc(-c2nnc3ccc(C#Cc4ccccc4)cn23)c1 | 20%
Brc1cnc2ccc(NCCCN3CCOCC3)nn12 | 10%
CN(C)CCCNC(=O)c1ccc(-c2ccc3nnc(-c4cccc(C(F)(F)F)c4)n3c2)cc1 | 20%
Clc1ccccc1-c1ccc2nnc(-c3cscn3)n2c1 | 50%
Oc1cccc(-c2cnc3cnc(-c4cccc(Cl)c4)cn23)c1 | 20%
CN1CCN(C(=O)c2ccc(-c3cnc4cnc(/C=C/c5ccccc5)cn34)cc2)CC1 | 10%
CN1CCN(c2ccc(-c3cn4c(-c5cccc(O)c5)cnc4cn3)cc2)CC1 | 20%
Fc1cccc(-c2cnc3cnc(-c4ccc(N5CCNCC5)cc4)cn23)c1 | 10%
c1ccc(-c2ccc3ncc(-c4ccc5c(c4)OCO5)n3n2)cc1 | 20%
COc1ccc(CNc2ccc3ncc(-c4ccc(OC)cc4OC)n3n2)cc1 | 10%
COc1cc(OC)cc(-c2cn3c(-c4cccc(N(C)C)c4)cnc3cn2)c1 | 20%
c1ccc(-c2cnc3cnc(-c4cccs4)cn23)cc1 | 20%

Test system: C2C12
Test: Cytotoxic activity against mouse C2C12 cells assessed as inhibition of cell proliferation of at 2 to 10 uM incubated for 72 hrs by MTT assay
Assay type: cell-based
Details: c2c12, 72 h

Structure (SMILES) | Activity
COc1cc(-c2ccc3ncc(-c4cccc(C(=O)NCCN(C)C)c4)n3n2)ccc1O | Toxic
NC(=O)c1ccc(-c2cnc3ccc(Cc4ccccc4)nn23)cc1 | Toxic
Cn1cc(-c2ccc3ncc(-c4cccs4)n3n2)cn1 | Toxic
NC(=O)c1ccc(-c2cnc3ccc(Cc4ccc(F)cc4)nn23)cc1 | Toxic

Test system: not listed separately
Test: Effect on insulin release in mouse BetaTC6 cells assessed as ratio of insulin release incubated for 2 hrs in presence of low glucose media by ELISA relative to DMSO
Assay type: cell-based
Details: beta-tc6, 2 h

Structure (SMILES) | Activity
Cn1cc(-c2ccc3ncc(-c4cccs4)n3n2)cn1 | Non-toxic
